Experimental data published in ChEMBL document CHEMBL1201862, “PubChem BioAssay data set” (2004).
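Step 1: Grow cells in 96-well plates. Step 2: Expose to compound for 48 hours at 5 concentrations. Step 3: Interpolate endpoints linearly; if unreached, use highest concentration. GI50 is the concentration that inhibits growth by half.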 Active and inactive are the calls of the source. Rule as the data show it: active = GI50 up to about 1.1 µM and inactive = higher.

What was measured:
Test in all cases: growth of human tumour cells (NCI), 48 h
NCI-H226 = tested on: NCI-H226
SN12C = tested on: SN12C
SK-MEL-2 = tested on: SK-MEL-2
HCC 2998 = tested on: HCC 2998
HOP-92 = tested on: HOP-92
NCI-H23 = tested on: NCI-H23
SK-OV-3 = tested on: SK-OV-3
HCT-15 = tested on: HCT-15
DMS-273 = tested on: DMS-273
HOP-62 = tested on: HOP-62
OVCAR-3 = tested on: OVCAR-3
NCI-H522 = tested on: NCI-H522
SK-MEL-28 = tested on: SK-MEL-28
UO-31 = tested on: UO-31
U-251 = tested on: U-251
KM-20L2 = tested on: KM-20L2
EKVX = tested on: EKVX
IGROV-1 = tested on: IGROV-1
LXFL 529 = tested on: LXFL 529
CCRF-CEM = tested on: CCRF-CEM
SF-539 = tested on: SF-539
LOX IMVI = tested on: LOX IMVI
OVCAR-4 = tested on: OVCAR-4
M19-MEL = tested on: M19-MEL
Malme-3M = tested on: Malme-3M
HL-60 = tested on: HL-60
UACC-257 = tested on: UACC-257
SF-295 = tested on: SF-295
K562 = tested on: K562
NCI-H460 = tested on: NCI-H460
DLD-1 = tested on: DLD-1
TK-10 = tested on: TK-10
A498 = tested on: A498
UACC-62 = tested on: UACC-62
RXF 393 = tested on: RXF 393
SR = tested on: SR
RPMI-8226 = tested on: RPMI-8226
MOLT-4 = tested on: MOLT-4
DMS-114 = tested on: DMS-114
ACHN = tested on: ACHN
SF-268 = tested on: SF-268
A549 = tested on: A549
M14 = tested on: M14
786-0 = tested on: 786-0
HT-29 = tested on: HT-29
SW-620 = tested on: SW-620
HCT-116 = tested on: HCT-116
KM12 = tested on: KM12
OVCAR-8 = tested on: OVCAR-8
COLO 205 = tested on: COLO 205
OVCAR-5 = tested on: OVCAR-5
XF498 = tested on: XF498
SNB-19 = tested on: SNB-19
CAKI-1 = tested on: CAKI-1
SNB-78 = tested on: SNB-78
SNB-75 = tested on: SNB-75
SK-MEL-5 = tested on: SK-MEL-5

In the case of CN1N=C2c3ccccc3CC[C@H]2C1c1cccc(O)c1 (some centres not stated), the GI50 (NCI-H226) is reported as > 100 µM (inactive), the GI50 (SN12C) is reported as > 100 µM (inactive) and the GI50 (SK-MEL-2) is reported as > 100 µM (inactive). The GI50 (HCC 2998) was > 100 µM (inactive), the GI50 (HOP-92) was > 100 µM (inactive) and the GI50 (NCI-H23) was > 100 µM (inactive). The GI50 (SK-OV-3) was > 100 µM (inactive), the GI50 (HCT-15) was > 100 µM and the GI50 (DMS-273) was > 100 µM (inactive). For the same compound, the GI50 (HOP-62) was > 100 µM (inactive), the GI50 (OVCAR-3) was > 100 µM (inactive) and the GI50 (NCI-H522) was > 100 µM (inactive). The GI50 (SK-MEL-28) was > 100 µM (inactive), the GI50 (UO-31) was 32.4 µM (inactive) and the GI50 (U-251) was > 100 µM (inactive). For the same compound, the GI50 (KM-20L2) was > 100 µM (inactive), the GI50 (EKVX) was > 100 µM (inactive) and the GI50 (IGROV-1) was > 100 µM (inactive). For the same compound, the GI50 (LXFL 529) was 99.5 µM (inactive), the GI50 (CCRF-CEM) was > 100 µM (inactive) and the GI50 (SF-539) was > 100 µM (inactive). For the same compound, the GI50 (LOX IMVI) was > 100 µM (inactive), the GI50 (OVCAR-4) was 75.9 µM (inactive) and the GI50 (M19-MEL) was > 100 µM (inactive). For the same compound, the GI50 (Malme-3M) was 463 nM (active), the GI50 (HL-60) was > 100 µM (inactive) and the GI50 (UACC-257) was > 100 µM (inactive). For the same compound, the GI50 (SF-295) was > 100 µM (inactive), the GI50 (K562) was 74.1 µM (inactive) and the GI50 (NCI-H460) was 81.1 µM (inactive). The GI50 (DLD-1) was > 100 µM (inactive), the GI50 (TK-10) was > 100 µM (inactive) and the GI50 (A498) was > 100 µM (inactive). The GI50 (UACC-62) was > 100 µM (inactive), the GI50 (RXF 393) was 77.4 µM (inactive) and the GI50 (SR) was > 100 µM (inactive). The GI50 (RPMI-8226) was > 100 µM (inactive), the GI50 (MOLT-4) was > 100 µM (inactive) and the GI50 (DMS-114) was > 100 µM (inactive). For the same compound, the GI50 (ACHN) was > 100 µM (inactive), the GI50 (SF-268) was > 100 µM (inactive) and the GI50 (A549) was 85.5 µM (inactive). The GI50 (M14) was > 100 µM (inactive), the GI50 (786-0) was > 100 µM (inactive) and the GI50 (HT-29) was 55.1 µM (inactive). The GI50 (SW-620) was > 100 µM (inactive), the GI50 (HCT-116) was 3.05 µM (inactive) and the GI50 (KM12) was > 100 µM (inactive). For the same compound, the GI50 (OVCAR-8) was > 100 µM (inactive), the GI50 (COLO 205) was > 100 µM (inactive) and the GI50 (OVCAR-5) was > 100 µM (inactive). For the same compound, the GI50 (XF498) was > 100 µM (inactive) and the GI50 (SNB-19) was > 100 µM (inactive).
CN/N=C(\C(=O)Nc1ccc(C)c(C)c1)C(C(=O)OC)c1nc2ccc([N+](=O)[O-])cc2nc1O (configuration not stated) was tested, and the GI50 (NCI-H226) was > 100 µM (inactive), the GI50 (SN12C) was > 100 µM (inactive) and the GI50 (SK-MEL-2) was > 100 µM (inactive). The GI50 (HCC 2998) was > 100 µM (inactive), the GI50 (HOP-92) was > 100 µM (inactive) and the GI50 (NCI-H23) was > 100 µM (inactive). For the same compound, the GI50 (SK-OV-3) was > 100 µM (inactive), the GI50 (HCT-15) was 85.1 µM and the GI50 (DMS-273) was > 100 µM (inactive). The GI50 (HOP-62) was > 100 µM (inactive), the GI50 (NCI-H522) was 12.6 µM (inactive) and the GI50 (SK-MEL-28) was > 100 µM (inactive). The GI50 (UO-31) was > 100 µM (inactive), the GI50 (U-251) was > 100 µM (inactive) and the GI50 (KM-20L2) was > 100 µM (inactive). The GI50 (CAKI-1) was > 100 µM (inactive), the GI50 (EKVX) was 60.5 µM (inactive) and the GI50 (IGROV-1) was > 100 µM (inactive). The GI50 (LXFL 529) was > 100 µM (inactive), the GI50 (CCRF-CEM) was > 100 µM (inactive) and the GI50 (SF-539) was > 100 µM (inactive). The GI50 (LOX IMVI) was > 100 µM (inactive), the GI50 (OVCAR-4) was > 100 µM (inactive) and the GI50 (SNB-78) was > 100 µM (inactive). For the same compound, the GI50 (M19-MEL) was > 100 µM (inactive), the GI50 (HL-60) was 50.9 µM (inactive) and the GI50 (UACC-257) was > 100 µM (inactive). For the same compound, the GI50 (SF-295) was > 100 µM (inactive), the GI50 (K562) was > 100 µM (inactive) and the GI50 (NCI-H460) was > 100 µM (inactive). The GI50 (DLD-1) was > 100 µM (inactive), the GI50 (TK-10) was > 100 µM (inactive) and the GI50 (A498) was > 100 µM (inactive). For the same compound, the GI50 (UACC-62) was 83.8 µM (inactive), the GI50 (RXF 393) was > 100 µM (inactive) and the GI50 (SR) was > 100 µM (inactive). For the same compound, the GI50 (RPMI-8226) was 52.7 µM (inactive), the GI50 (MOLT-4) was > 100 µM (inactive) and the GI50 (DMS-114) was 42.2 µM (inactive). The GI50 (ACHN) was > 100 µM (inactive), the GI50 (SF-268) was > 100 µM (inactive) and the GI50 (A549) was > 100 µM (inactive). The GI50 (M14) was > 100 µM (inactive), the GI50 (HT-29) was > 100 µM (inactive) and the GI50 (SW-620) was > 100 µM (inactive). The GI50 (SNB-75) was > 100 µM (inactive), the GI50 (HCT-116) was > 100 µM (inactive) and the GI50 (KM12) was 94.4 µM (inactive). For the same compound, the GI50 (OVCAR-8) was > 100 µM (inactive), the GI50 (COLO 205) was > 100 µM (inactive) and the GI50 (OVCAR-5) was > 100 µM (inactive). The GI50 (XF498) was > 100 µM (inactive), the GI50 (SK-MEL-5) was > 100 µM (inactive) and the GI50 (SNB-19) was > 100 µM (inactive).
